From patent publication US9127018B2, “Solid forms of ortataxel” (Indena S.p.A., priority 2008, dated 2015)

Test: physical and chemical stability of the solid form
Assay type: physicochemical
Details: solid form prepared with traces of an organic acid (citric acid); storage conditions not given

chemical and physical stability: at least 36 months
Structure (SMILES): CC(=O)O[C@H]1C(=O)[C@@]2(C)[C@H]([C@H](OC(=O)c3ccccc3)[C@]34OC(=O)O[C@H]3[C@H](OC(=O)[C@H](O)[C@H](CC(C)C)NC(=O)OC(C)(C)C)C(C)=C1C4(C)C)[C@]1(OC(C)=O)CO[C@@H]1C[C@@H]2O [Form A, 13-(N-Boc-β-isobutylserinyl)-14-β-hydroxybaccatin III 1, 14-carbonate]
